Laboratory results as given in patent US8415342B2, “Besifloxacin ophthalmic composition for the treatment or control of infection” (Bausch & Lomb Incorporated, priority 2008, dated 2013).
Values after ≈ are worked out from the molar mass of the structure shown. Where two headings read alike, the source gives them in different places.

Columns and labels:
Type in all cases: cell-based
[1] = test system: Pathogens Associated With Bacterial Conjunctivitis; experiment: Integrated besifloxacin MIC data from preclinical (nonclinical) studies (Table 8); details: for MIC50: read-out: MIC50
[2] = test system: S. aureus, S. pneumoniae, and H. influenzae; experiment: Time-kill studies; details: S. pneumoniae, and H. influenzae (data not shown)
Excerpt: The success of in vivo antimicrobial action depends to a large extent on the host's defense mechanisms, which ultimately sequester and kill the microorganisms that have been reduced by the bacteriostatic/bactericidal action of the antibacterial agent. Thus, it is also of interest to profile the bactericidal activity of antimicrobial agents. The assessment of in vitro bactericidal activity can be accomplished in multiple ways, for example, the time-kill method or the determination of the minimum bactericidal concentration (MBC). […] Bactericidal agents are characterized by low MBC:MIC ratios.

H. influenzae = experiment: MIC of clinical trial isolates, Studies 373, 433, 434; details: Haemophilus influenzae, isolates of studies 373, 433, 434; read-out: MIC90
Experimental: (§1) PFGE testing was performed per standard procedures.
(§2) The antibacterial susceptibility profile of each Visit 1 bacterial isolate was determined for besifloxacin and other antimicrobials.

S. pneumoniae = experiment: as above; details: Streptococcus pneumoniae, isolates of studies 373, 433, 434; read-out: MIC90
Experimental: as §1, §2

[3] = Proteus mirabilis Quinolone-S, N 98
[4] = Serratia marcescens Quinolone-S, N 98

## N[C@@H]1CCCCN(c2c(F)cc3c(=O)c(C(=O)O)cn(C4CC4)c3c2Cl)C1 [Besifloxacin, (R)-(+)-(3-amino-2,3,4,5,6,7-hexahydro-1H-azepin-1-yl)-8-chloro-1-cyclopropyl-6-fluoro-1,4,-dihydro-4-oxo-3-quinolinecarboxylic acid]
[1]; Morganella morganii, Morganella morganii Quinolone-R, N 12
  MIC50: 4 µg/mL (≈ 10.2 µM)
[1]; Morganella morganii, Morganella morganii Quinolone-R, N 12, read-out: MIC90
  MIC90: 8 µg/mL (≈ 20.3 µM)
[1]; Morganella morganii, Morganella morganii Quinolone-S, N 39, read-out: MIC90
  MIC90: 1 µg/mL (≈ 2.54 µM)
[1]; Neisseria gonorrhoeae, N 103
  MIC Range: 0.004 to 2 µg/mL
  MIC50: 0.015 µg/mL (≈ 0.0381 µM)
[1]; Neisseria gonorrhoeae, N 103, read-out: MIC90
  MIC90: 0.015 µg/mL (≈ 0.0381 µM)
[1]; Propionibacterium acnes, N 21, agar dilution
  MIC Range: 0.12 to 0.25 µg/mL
[1]; [3]
  MIC Range: 0.25 to 4 µg/mL
  MIC50: 0.5 µg/mL (≈ 1.27 µM)
[1]; Proteus mirabilis, Proteus mirabilis Quinolone-S, N 98, read-out: MIC90
  MIC90: 1 µg/mL (≈ 2.54 µM)
[1]; Pseudomonas aeruginosa Quinolone-S, N 49
  MIC Range: 0.5 to 4 µg/mL
[1]; Pseudomonas aeruginosa, Pseudomonas aeruginosa Quinolone-R, N 51
  MIC50: > 8 µg/mL
[1]; Pseudomonas aeruginosa, Pseudomonas aeruginosa Quinolone-R, N 51, read-out: MIC90
  MIC90: > 8 µg/mL
[1]; Pseudomonas aeruginosa, Pseudomonas aeruginosa Quinolone-S, N 49
  MIC50: 1 µg/mL (≈ 2.54 µM)
[1]; Pseudomonas aeruginosa, Pseudomonas aeruginosa Quinolone-S, N 49, read-out: MIC90
  MIC90: 2 µg/mL (≈ 5.08 µM)
[1]; S. aureus, value used for PK/PD ratios of Study 424
  MIC90: ^aMIC90: S. aureus = 1 μg/mL.
[1]; [4]
  MIC Range: 0.25 to 2 µg/mL
  MIC50: 1 µg/mL (≈ 2.54 µM)
[1]; Serratia marcescens, Serratia marcescens Quinolone-S, N 98, read-out: MIC90
  MIC90: 2 µg/mL (≈ 5.08 µM)
[1]; Staphylococcus aureus MRSA-QR, N 73
  MIC Range: 0.25 to 8 µg/mL
[1]; Staphylococcus aureus MSSA-QR, N 12
  MIC Range: 0.03 to 4 µg/mL
[1]; Staphylococcus aureus, MRSA, Staphylococcus aureus MRSA-QR, N 73
  MIC50: 1 µg/mL (≈ 2.54 µM)
[1]; Staphylococcus aureus, MRSA, Staphylococcus aureus MRSA-QS, N 36
  MIC50: 0.03 µg/mL (≈ 0.0762 µM)
[1]; Staphylococcus aureus, MSSA, Staphylococcus aureus MSSA-QR, N 12
  MIC50: 0.25 µg/mL (≈ 0.635 µM)
[1]; Staphylococcus aureus, MSSA, Staphylococcus aureus MSSA-QR, N 12, read-out: MIC90
  MIC90: 4 µg/mL (≈ 10.2 µM)
[1]; Staphylococcus aureus, MSSA, Staphylococcus aureus MSSA-QS, N 80
  MIC50: 0.03 µg/mL (≈ 0.0762 µM)
[1]; Staphylococcus aureus, S. aureus, value used for PK/PD ratios of Study 424, read-out: MIC90
  MIC90: 1 µg/mL
[1]; Staphylococcus epidermidis MRSE-QR, N 32
  MIC Range: 0.25 to 8 µg/mL
[1]; Staphylococcus epidermidis MSSE-QR, N 5
  MIC Range: 0.25 to 1 µg/mL
[1]; Staphylococcus epidermidis MSSE-QS, N 39
  MIC Range: 0.015 to 0.06 µg/mL
[1]; Staphylococcus epidermidis, MRSE, Staphylococcus epidermidis MRSE-QR, N 32
  MIC50: 2 µg/mL (≈ 5.08 µM)
[1]; Staphylococcus epidermidis, MRSE, Staphylococcus epidermidis MRSE-QS, N 23
  MIC50: 0.03 µg/mL (≈ 0.0762 µM)
[1]; Staphylococcus epidermidis, Staphylococcus epidermidis MSSE-QR, N 5
  MIC50: 0.5 µg/mL (≈ 1.27 µM)
[1]; Staphylococcus hominis Quinolone-R, N 35
  MIC Range: 0.125 to 2 µg/mL
[1]; Staphylococcus hominis Quinolone-S, N 15
  MIC Range: 0.015 to 0.06 µg/mL
[1]; Staphylococcus hominis, Staphylococcus hominis Quinolone-S, N 15
  MIC50: 0.03 µg/mL (≈ 0.0762 µM)
[1]; Staphylococcus hominis, Staphylococcus hominis Quinolone-S, N 15, read-out: MIC90
  MIC90: 0.06 µg/mL (≈ 0.152 µM)
[1]; Staphylococcus lugdunensis Quinolone-R, N 5
  MIC Range: 0.125 to 2 µg/mL
[1]; Staphylococcus lugdunensis Quinolone-S, N 10
  MIC Range: 0.015 to 0.06 µg/mL
[1]; Staphylococcus lugdunensis, Staphylococcus lugdunensis Quinolone-R, N 5
  MIC50: 0.5 µg/mL (≈ 1.27 µM)
[1]; Staphylococcus lugdunensis, Staphylococcus lugdunensis Quinolone-R, N 5, read-out: MIC90
  MIC90: 2 µg/mL (≈ 5.08 µM)
[1]; Staphylococcus lugdunensis, Staphylococcus lugdunensis Quinolone-S, N 10
  MIC50: 0.03 µg/mL (≈ 0.0762 µM)
[1]; Staphylococcus lugdunensis, Staphylococcus lugdunensis Quinolone-S, N 10, read-out: MIC90
  MIC90: 0.06 µg/mL (≈ 0.152 µM)
[1]; Streptococcus mitis, Streptococcus mitis group, N 90
  MIC50: 0.06 µg/mL (≈ 0.152 µM)
[1]; Streptococcus mitis, Streptococcus mitis group, N 90, read-out: MIC90
  MIC90: 0.12 µg/mL (≈ 0.305 µM)
[1]; Streptococcus oralis, N 22
  MIC Range: 0.03 to 2 µg/mL
  MIC50: 0.06 µg/mL (≈ 0.152 µM)
[1]; Streptococcus oralis, N 22, read-out: MIC90
  MIC90: 0.12 µg/mL (≈ 0.305 µM)
[1]; Streptococcus pneumoniae Penicillin-S, N 123
  MIC Range: 0.015 to 1 µg/mL
[1]; Streptococcus pneumoniae, Streptococcus pneumoniae Penicillin-I, N 28
  MIC50: 0.12 µg/mL (≈ 0.305 µM)
[1]; Streptococcus pneumoniae, Streptococcus pneumoniae Penicillin-I, N 28, read-out: MIC90
  MIC90: 0.12 µg/mL (≈ 0.305 µM)
[1]; Streptococcus pneumoniae, Streptococcus pneumoniae Penicillin-R, N 61
  MIC50: 0.12 µg/mL (≈ 0.305 µM)
[1]; Streptococcus pneumoniae, Streptococcus pneumoniae Penicillin-R, N 61, read-out: MIC90
  MIC90: 0.12 µg/mL (≈ 0.305 µM)
[1]; Streptococcus pneumoniae, Streptococcus pneumoniae Penicillin-S, N 123
  MIC50: 0.12 µg/mL (≈ 0.305 µM)
[1]; Streptococcus pneumoniae, Streptococcus pneumoniae Penicillin-S, N 123, read-out: MIC90
  MIC90: 0.12 µg/mL (≈ 0.305 µM)
[1]; Streptococcus pneumoniae, Streptococcus pneumoniae Quinolone-R, N 23
  MIC50: 1 µg/mL (≈ 2.54 µM)
[1]; Streptococcus pneumoniae, Streptococcus pneumoniae Quinolone-R, N 23, read-out: MIC90
  MIC90: 4 µg/mL (≈ 10.2 µM)
[1]; Streptococcus pyogenes, N 201
  MIC50: 0.06 µg/mL (≈ 0.152 µM)
[1]; Streptococcus pyogenes, N 201, read-out: MIC90
  MIC90: 0.12 µg/mL (≈ 0.305 µM)
[1]; Streptococcus salivarius, N 2
  MIC Range: 0.06 µg/mL (≈ 0.152 µM)
[2]
  bactericidal activity in time-kill studies: confirmed the bactericidal activity
H. influenzae
  MIC90: 0.06 µg/mL
S. pneumoniae
  MIC90: 0.125 µg/mL
